Measurements taken from US20110152091A1, “Herbicidal Compositions Comprising Flufenacet” (BAYER CROPSCIENCE AG, priority 2009, published 2011).

Tests used:
Type in all cases: in vivo
[1] = test system: Hordeum vulgare, summer barley (HORVS); test: Greenhouse trial: PO application, crop plant (test methods 2 and 5); conditions: g of AS/ha: A 240, B 120, C 140, mixture 240 + 120 + 140
Description: (§1) In the standard design of the test, seeds of various broad-leaved weed and weed grass biotypes (origins) were sown in a 8-13 cm diameter pot filled with natural soil of a standard field soil (loamy silt; non-sterile) and covered with a covering soil layer of about 1 cm. The pots were then cultivated in a greenhouse (12-16 h of light, temperature day 20-22° C., night 15-18° C.) until the time of application. The pots were treated on a laboratory track sprayer with spray liquors comprising the compositions according to the invention, mixtures of the prior art or components used individually. Application of the active compounds or active compound combinations formulated as WG, WP, EC or otherwise was carried out at the appropriate growth stages of the plants. The application rate for the spray application was 100-600 l of water/ha. After the treatment, the plants were returned to the greenhouses.
(§2) About 3 weeks after the application, the soil action or/and foliar action was assessed visually according to a scale of 0-100% in comparison to an untreated comparative group: 0%=no noticeable effect compared to the untreated comparative group; 100%=full effect compared to the untreated comparative group.
(notes: the term “seeds” also includes vegetative propagation forms such as, for example, rhizome pieces; abbreviations used: h light=hours of illumination, g of AS/ha=gram of active substance per hectare, l/ha=liter per hectare, S=sensitive, R=resistant) • 1. Pre-emergence action against weeds: seeds of various broad-leaved weed and weed grass biotypes (origins) were sown in a 8-13 cm diameter pot filled with natural soil of a standard field soil (loamy silt; non-sterile) and covered with a covering soil layer of about 1 cm. The pots were then cultivated in a greenhouse (12-16 h of light, temperature day 20-22° C., night 15-18° C.) until the time of application. […]

[2] = test system: Hordeum vulgare, summer barley (HORVS); test: Greenhouse trial: different sowing depths on PE application, crop plant (test method 9); conditions: g of AS/ha: A 90, B 90, C 140, mixture 90 + 90 + 140; for activity HORVS 5 mm (visual, scale 0-100%): Sowing depth 5 mm; for activity HORVS 20 mm (visual, scale 0-100%): Sowing depth 20 mm
Description: as §1, §2
(§3) (notes: the term “seeds” also includes vegetative propagation forms such as, for example, rhizome pieces; abbreviations used: h light=hours of illumination, g of AS/ha=gram of active substance per hectare, l/ha=liter per hectare, S=sensitive, R=resistant) • 1. Pre-emergence action against weeds: seeds of various broad-leaved weed and weed grass biotypes (origins) were sown in a 8-13 cm diameter pot filled with natural soil of a standard field soil (loamy silt; non-sterile) and covered with a covering soil layer of about 1 cm. The pots were then cultivated in a greenhouse (12-16 h of light, temperature day 20-22° C., night 15-18° C.) until the time of application. The pots were treated at the BBCH stage 00-10 of the seeds/plants on a laboratory track sprayer with spray liquors comprising the compositions according to the invention, mixtures or components used individually, as WG, WP, EC or other formulations. The application rate for the spray application was 100-600 l of water/ha. After the treatment, the plants were returned to the greenhouses and, when required, treated with fertilizer and watered. • 2. Post-emergence action against weeds: seeds of various broad-leaved weed and weed grass biotypes (origins) were sown in a 8-13 cm diameter pot filled with natural soil of a standard field soil (loamy silt; non-sterile) and covered with a covering soil layer of about 1 cm. The pots were then cultivated in a greenhouse (12-16 h of light, temperature day 20-22° C., night 15-18° C.) until the time of application. The pots were treated at various BBCH stages between 11-25 of the seeds/plants, i.e. generally between two to three weeks after the start of the cultivation, on a laboratory track sprayer with spray liquors comprising the compositions according to the invention, mixtures or components used individually, as WG, WP, EC or other formulations. The application rate for the spray application was 100-600 l of water/ha. After the treatment, the plants were returned to the greenhouses and, when required, treated with fertilizer and watered. • 3. Pre-emergence action against weeds with and without incorporation of active compound: seeds of various broad-leaved weed and weed grass biotypes (origins) were sown in a 8-13 cm diameter pot filled with natural soil of a standard field soil (loamy silt; non-sterile). […]

Avena fatua (AVEFA) [3] = test: Greenhouse trial: different soil pH values on PE application (test method 11); conditions: for activity AVEFA pH 7.4 (visual, scale 0-100%): soil pH 7.4, g of AS/ha: A 90, B 90, C 140, mixture 90 + 90 + 140; for activity AVEFA pH 8.4 (visual, scale 0-100%): soil pH 8.4, g of AS/ha: A 90, B 90, C 140, mixture 90 + 90 + 140
Description: as §1, §2, §3

Poa annua (POAAN) = test: Greenhouse trial: PE soil application vs incorporation into the soil (test methods 1, 3 and 4); conditions: g of AS/ha: A 75, B 60, C 70, mixture 75 + 60 + 70
Description: as §1, §2, §3

Stellaria media (STEME) [4] = test: Greenhouse trial: different soil types (test method 7); conditions: g of AS/ha: A 90, B 90, C 140, mixture 90 + 90 + 140
Description: as §1, §2, §3

[5] = test system: Triticum aestivum, winter wheat (TRZAW); test: Greenhouse trial: pre-sowing method vs PE application, crop plant (test method 6); conditions: g of AS/ha: A 90, B 90, C 140, mixture 90 + 90 + 140
Description: as §1, §2, §3

Lolium perenne (LOLPE) = test: Greenhouse trial: pre-sowing method vs PE application (test method 6); conditions: g of AS/ha: A 90, B 90, C 140, mixture 90 + 90 + 140
Description: as §1, §2, §3

[6] = test system: Hordeum vulgare, summer barley (HORVS); test: Greenhouse trial: different soil types, crop plant (test method 7); conditions: g of AS/ha: A 90, B 90, C 140, mixture 90 + 90 + 140
Description: as §1, §2, §3

[7] = test system: Hordeum vulgare, summer barley (HORVS); test: Greenhouse trial: different soil pH values on PE application, crop plant (test method 11); conditions: for activity HORVS pH 7.4 (visual, scale 0-100%): soil pH 7.4, g of AS/ha: A 90, B 90, C 140, mixture 90 + 90 + 140; for activity HORVS pH 8.4 (visual, scale 0-100%): soil pH 8.4, g of AS/ha: A 90, B 90, C 140, mixture 90 + 90 + 140
Description: as §1, §2, §3

[8] = test system: Triticum aestivum, winter wheat (TRZAW); test: Greenhouse trial: PE soil application vs incorporation into the soil, crop plant (test methods 1, 3 and 4); conditions: g of AS/ha: A 75, B 60, C 70, mixture 75 + 60 + 70
Description: as §1, §2, §3

[9] = test system: Lolium species (LOLSS), sensitive and resistant biotypes; test: Greenhouse trial: resistant biotypes following PE application (test method 8); conditions: g of AS/ha: A 90, B 90, C 140, mixture 90 + 90 + 140, iodosulfuron 10
Description: as §1
as §2, with “group. […]” for “group.”

Stellaria media (STEME) [10] = test: Greenhouse trial: PE soil application vs incorporation into the soil (test methods 1, 3 and 4); conditions: g of AS/ha: A 75, B 60, C 70, mixture 75 + 60 + 70
Description: as §1, §2, §3

[11] = test system: Matricaria chamomilla (MATCH); test: Greenhouse trial: different soil types (test method 7); conditions: g of AS/ha: A 90, B 90, C 140, mixture 90 + 90 + 140
Description: as §1, §2, §3

Avena fatua (AVEFA) [12] = test: Greenhouse trial: pre-sowing method vs PE application (test method 6); conditions: g of AS/ha: A 90, B 90, C 140, mixture 90 + 90 + 140
Description: as §1, §2, §3

[13] = test system: Matricaria chamomilla (MATCH); test: Greenhouse trial: different sowing depths on PE application (test method 9); conditions: g of AS/ha: A 90, B 90, C 140, mixture 90 + 90 + 140
Description: as §1
as §2, with “group. […]” for “group.”

[14] = test system: Apera Spica-venti (APESV); test: Greenhouse trial: PO application (test methods 2 and 5); conditions: g of AS/ha: A 240, B 120, C 140, mixture 240 + 120 + 140
Description: as §1
as §2, with “group. […]” for “group.”

[15] = Application 7 days prior to sowing

Q: With `O=C(Nc1ccc(F)cc1F)c1cccnc1Oc1cccc(C(F)(F)F)c1` [(B) diflufenican, N-(2,4-difluorophenyl)-2-[3-(trifluoromethyl)phenoxy]-3-pyridinecarboxamide] as the molecule, how does the “activity HORVS (visual, scale 0-100%)” value [1] read?
A: 5%

Q: What about the “activity HORVS 5 mm (visual, scale 0-100%)” value [2] of the same molecule?
A: 30%

Q: What about the “activity HORVS 20 mm (visual, scale 0-100%)” value [2] of the same molecule?
A: 5%

Q: What about the “activity AVEFA pH 7.4 (visual, scale 0-100%)” value (Avena fatua (AVEFA) [3]) of the same molecule?
A: 0%

Q: And the “activity AVEFA pH 8.4 (visual, scale 0-100%)” value (Avena fatua (AVEFA) [3])?
A: 30%

Q: What about the “activity POAAN (visual, scale 0-100%)” value (Poa annua (POAAN); Incorporation into the soil) of the same molecule?
A: 75%

Q: What about the “activity STEME IU soil (visual, scale 0-100%)” value (Stellaria media (STEME) [4]) of the same molecule?
A: 95%

Q: And the “activity STEME IU/EC73 soil (visual, scale 0-100%)” value (Stellaria media (STEME) [4])?
A: 38%

Q: And the “activity TRZAW (visual, scale 0-100%)” value [5, 15]?
A: 10%

Q: What about the “activity TRZAW (visual, scale 0-100%)” value ([5]; PE application) of the same molecule?
A: 10%

Q: What about the “activity LOLPE (visual, scale 0-100%)” value (Lolium perenne (LOLPE); [15]) of the same molecule?
A: 0%

Q: What about the “activity LOLPE (visual, scale 0-100%)” value (Lolium perenne (LOLPE); PE application) of the same molecule?
A: 60%

Q: What about the “activity HORVS IU soil (visual, scale 0-100%)” value [6] of the same molecule?
A: 0%

Q: And the “activity HORVS IU/EC73 soil (visual, scale 0-100%)” value [6]?
A: 0%

Q: What about the “activity HORVS pH 7.4 (visual, scale 0-100%)” value [7] of the same molecule?
A: 0%

Q: And the “activity HORVS pH 8.4 (visual, scale 0-100%)” value [7]?
A: 0%

Q: What about the “activity TRZAW (visual, scale 0-100%)” value ([8]; Incorporation into the soil) of the same molecule?
A: 20%

Q: And the “activity TRZAW (visual, scale 0-100%)” value ([8]; PE application)?
A: 10%

Q: With `CSc1nnc(C(C)(C)C)c(=O)n1N` [(C) metribuzin, 4-amino-6-(1,1-dimethylethyl)-3-(methylthio)-1,2,4-triazin-5(4H)-one] as the molecule, how does the “activity HORVS (visual, scale 0-100%)” value [1] read?
A: 70%

Q: And the “activity HORVS 5 mm (visual, scale 0-100%)” value [2]?
A: 70%

Q: And the “activity HORVS 20 mm (visual, scale 0-100%)” value [2]?
A: 30%

Q: What about the “activity LOLSS resistant (visual, scale 0-100%)” value ([9]; resistant biotype) of the same molecule?
A: 70%

Q: What about the “activity LOLSS sensitive (visual, scale 0-100%)” value ([9]; sensitive biotype) of the same molecule?
A: 70%

Q: And the “activity AVEFA pH 7.4 (visual, scale 0-100%)” value (Avena fatua (AVEFA) [3])?
A: 90%

Q: What about the “activity AVEFA pH 8.4 (visual, scale 0-100%)” value (Avena fatua (AVEFA) [3]) of the same molecule?
A: 90%

Q: And the “activity STEME (visual, scale 0-100%)” value (Stellaria media (STEME) [10]; Incorporation into the soil)?
A: 0%

Q: What about the “activity STEME (visual, scale 0-100%)” value (Stellaria media (STEME) [10]; PE application) of the same molecule?
A: 75%

Q: And the “activity POAAN (visual, scale 0-100%)” value (Poa annua (POAAN); Incorporation into the soil)?
A: 15%

Q: And the “activity POAAN (visual, scale 0-100%)” value (Poa annua (POAAN); PE application)?
A: 0%

Q: And the “activity STEME IU soil (visual, scale 0-100%)” value (Stellaria media (STEME) [4])?
A: 75%

Q: And the “activity STEME IU/EC73 soil (visual, scale 0-100%)” value (Stellaria media (STEME) [4])?
A: 5%

Q: And the “activity MATCH IU soil (visual, scale 0-100%)” value ([11]; IU soil)?
A: 0%

Q: What about the “activity MATCH IU/EC73 soil (visual, scale 0-100%)” value ([11]; IU/EC73 soil) of the same molecule?
A: 15%

Q: What about the “activity TRZAW (visual, scale 0-100%)” value [5, 15] of the same molecule?
A: 0%

Q: What about the “activity TRZAW (visual, scale 0-100%)” value ([5]; PE application) of the same molecule?
A: 55%

Q: What about the “activity LOLPE (visual, scale 0-100%)” value (Lolium perenne (LOLPE); [15]) of the same molecule?
A: 10%

Q: And the “activity LOLPE (visual, scale 0-100%)” value (Lolium perenne (LOLPE); PE application)?
A: 50%

Q: And the “activity AVEFA (visual, scale 0-100%)” value (Avena fatua (AVEFA) [12]; [15])?
A: 0%

Q: What about the “activity AVEFA (visual, scale 0-100%)” value (Avena fatua (AVEFA) [12]; PE application) of the same molecule?
A: 10%

Q: And the “activity HORVS IU soil (visual, scale 0-100%)” value [6]?
A: 0%

Q: And the “activity HORVS IU/EC73 soil (visual, scale 0-100%)” value [6]?
A: 0%

Q: What about the “activity HORVS pH 7.4 (visual, scale 0-100%)” value [7] of the same molecule?
A: 40%

Q: What about the “activity HORVS pH 8.4 (visual, scale 0-100%)” value [7] of the same molecule?
A: 50%

Q: What about the “activity MATCH 5 mm (visual, scale 0-100%)” value ([13]; Sowing depth 5 mm) of the same molecule?
A: 100%

Q: And the “activity MATCH 20 mm (visual, scale 0-100%)” value ([13]; Sowing depth 20 mm)?
A: 70%

Q: What about the “activity APESV (visual, scale 0-100%)” value [14] of the same molecule?
A: 79%

Q: And the “activity TRZAW (visual, scale 0-100%)” value ([8]; Incorporation into the soil)?
A: 55%

Q: And the “activity TRZAW (visual, scale 0-100%)” value ([8]; PE application)?
A: 30%
